This is an account of results in patent US9265773B2, “Tetracyclic heterocycle compounds and methods of use thereof for the treatment of viral diseases” (priority 2011, dated 2016).

Structures are written as SMILES.

Test [1] concerns HCV replicon genotype 1a. Put plainly: microbe, parasite or virus in culture. The settings on record: genotype 1a replicon cells, incubated 96 hours, NS3/4A ELISA readout. The format is cell-based. Background: A replicon is a self-replicating genome or part of one, used to study replication in cells.
Test [2] deals with HCV replicon genotype 1b. Put plainly: microbe, parasite or virus in culture. The test is classed as cell-based. As to conditions: genotype 1b replicon cells, incubated 96 hours, NS3/4A ELISA readout.

On to `CNC(=O)c1c(-c2ccc(F)cc2)oc2cc(N(C)S(C)(=O)=O)c(-c3ccc4c(n3)-c3c(C(O)C(=O)O)c5c(F)cccc5n3CO4)cc12` (centres unmarked) [Compound 207, 2-(11-fluoro-2-(2-(4-fluorophenyl) -3-(methylcarbamoyl)-6-(N-methylmethylsulfonamido)benzofuran-5-yl)-6H-pyrido[2′,3′:5,6][1,3]oxazino[3,4-a]indol-12-yl)-2-hydroxyacetic acid], for which the IC50 in test [1] (Hepatitis C virus, 96 h) was found to be 3.3 nM; in test [2] (Hepatitis C virus, 96 h) it was 2.1 nM.

For `CONC(=O)c1c(-c2ccc(F)cc2)oc2cc(N(C)S(C)(=O)=O)c(-c3ccc4c(n3)-c3cc5c(F)cccc5n3CO4)cc12` [Compound 153], the IC50 in test [1] (Hepatitis C virus, 96 h) stood at 2.5 nM; in test [2] (Hepatitis C virus, 96 h), 4.9 nM.

For the compound `CNC(=O)c1c(-c2ccc(F)cc2)oc2cc(N(C)S(C)(=O)=O)c(-c3cnc4c(c3)-c3cc5ccccc5n3CO4)cc12` [Compound 24], the IC50 in test [1] (Hepatitis C virus, 96 h) worked out at 3 nM; in test [2] (Hepatitis C virus, 96 h) it was 5.1 nM.

Consider `CNC(=O)c1c(-c2ccc(F)cc2)oc2cc(N(C)S(C)(=O)=O)c(-c3ccc4c(n3)-c3c(Cl)c5ccccc5n3CO4)cc12` [Compound 55, 5-(12-chloro-6H-pyrido[2′,3′:5,6][1,3]oxazino[3,4-a]indol-2-yl)-2-(4-fluorophenyl)-N-methyl-6-(N-methylmethylsulfonamido)benzofuran-3-carboxamide], for which the IC50 in test [1] (Hepatitis C virus, 96 h) was 57 nM; in test [2] (Hepatitis C virus, 96 h), 49 nM.

For `CNC(=O)c1c(-c2ccc(F)cc2)oc2cc(N(C)S(C)(=O)=O)c(-c3ccc4c(n3)-c3cc5c(F)cccc5n3C(C(C)(C)O)O4)cc12` (centres unmarked) [Compound 101, 5-(11-fluoro-6-(2-hydroxypropan-2-yl)-6H-pyrido[2′,3′,5,6][1,3]oxazino[3,4-a]indol-2-yl)-2-(4-fluorophenyl)-N-methyl-6-(N-methylmethylsulfonamido)benzofuran-3-carboxamide], the IC50 in test [1] (Hepatitis C virus, 96 h) came to 5.8 nM; in test [2] (Hepatitis C virus, 96 h), 8.7 nM.

On to `CNC(=O)c1c(-c2ccc(F)cc2)oc2cc(N(C)S(C)(=O)=O)c(-c3ccc4c(c3)-c3nc5ccccn5c3CO4)cc12` [Compound 142, 5-(6H-chromeno[4′,3′:4,5]imidazo[1,2-a]pyridin-2-yl)-2-(4-fluorophenyl)-N-methyl-6-(N-methylmethylsulfonamido)benzofuran-3-carboxamide], for which the IC50 in test [1] (Hepatitis C virus, 96 h) was 4.1 nM; in test [2] (Hepatitis C virus, 96 h) it was 4 nM.

Turning to `CNC(=O)c1c(-c2ccc(F)cc2)oc2cc(N(C)S(C)(=O)=O)c(-c3ccc4c(c3)-c3[nH]c5ccccc5c3C(C(C)(C)C)O4)cc12` (centres unmarked) [Compound 64], the IC50 turned out to be 71 nM in test [1] (Hepatitis C virus, 96 h) and 44 nM in test [2] (Hepatitis C virus, 96 h).

Regarding `CNC(=O)c1c(-c2ccc(F)cc2)oc2cc(N(C)S(C)(=O)=O)c(-c3ccc4c(n3)-c3cc5c(F)cccc5n3C(C(N)=O)O4)cc12` (centres unmarked) [Compound 105, 11-fluoro-2-(2-(4-fluorophenyl)-3-(methylcarbamoyl)-6-(N-methylmethylsulfonamido)benzofuran-5-yl)-6H-pyrido[2′,3′:5,6][1,3]oxazino[3,4-a]indole-6-carboxamide], the IC50 in test [1] worked out at 1.4 nM; in test [2] it was 0.9 nM.

As for `CNC(=O)c1c(-c2ccc(F)cc2)oc2cc(N(C)S(C)(=O)=O)c(-c3ccc4c(n3)-c3cc5c(F)cccc5n3C(C)(CO)O4)cc12` (centres unmarked) [Compound 92], the 50% inhibitory concentration (IC50) in test [1] was determined as 4.2 nM; in test [2], 6.5 nM.

In the case of `CN(c1cc2oc(-c3ccc(F)cc3)c(C(=O)NC3COC3)c2cc1-c1ccc2c(n1)-c1cc3c(F)cccc3n1CO2)S(C)(=O)=O` [Compound 152], the 50% inhibitory concentration (IC50) worked out at 14 nM in test [1] (Hepatitis C virus, 96 h) and 15 nM in test [2] (Hepatitis C virus, 96 h).

For `CNC(=O)c1c(-c2ccc(F)cc2)oc2cc(N(C)S(C)(=O)=O)c(-c3ccc4c(n3)-c3cc5c(F)cccc5n3C(CNC(C)=O)O4)cc12` (centres unmarked) [Compound 130], the IC50 in test [1] and in test [2] was 3 nM in each case.

Consider `CNC(=O)c1c(-c2ccc(F)cc2)oc2cc(N)c(-c3ccc4c(n3)-c3cc5c(F)cccc5n3CO4)cc12` [Compound 163, 6-amino-5-(11-fluoro-6H-pyrido[2′,3′:5,6][1,3]oxazino[3,4-a]indol-2-yl)-2-(4-fluorophenyl)-N-methylbenzofuran-3-carboxamide], for which the IC50 in test [1] (Hepatitis C virus, 96 h) amounted to 1.1 nM; in test [2] (Hepatitis C virus, 96 h), 2.2 nM.

Consider `CNC(=O)c1c(-c2ccc(F)cc2)oc2cc(N(C)S(C)(=O)=O)c(-c3ccc4c(c3)-c3cc5ccccc5n3CC(NCCCN(C)C)CO4)cc12` (centres unmarked) [Compound 81], for which the IC50 in test [1] (Hepatitis C virus, 96 h) was 36 nM; in test [2] (Hepatitis C virus, 96 h), 22 nM.

`CNC(=O)c1c(-c2ccc(F)cc2)oc2cc(N(C)S(C)(=O)=O)c(-c3ccc4c(n3)-c3cc5c(F)cccc5n3C3(COC3)O4)cc12` [Compound 97]: the IC50 in test [1] (Hepatitis C virus, 96 h) was found to be 2.9 nM; in test [2] (Hepatitis C virus, 96 h) it was 4.4 nM.

Regarding `CNC(=O)c1c(-c2ccc(F)cc2)oc2cc(N(C)S(C)(=O)=O)c(-c3ccc4c(n3)-c3cc5c(F)cccc5n3C(c3ccccc3)O4)cc12` (centres unmarked) [Compound 51, 5-(11-fluoro-6-phenyl-6H-pyrido[2′,3′:5,6][1,3]oxazino[3,4-a]indol-2-yl)-2-(4-fluorophenyl)-N-methyl-6-(N-methylmethylsulfonamido)benzofuran-3-carboxamide], the IC50 in test [1] (Hepatitis C virus, 96 h) was 17 nM; in test [2] (Hepatitis C virus, 96 h) it was 33 nM.

Consider `CCOC(=O)CNCC1Oc2ccc(-c3cc4c(C(=O)NC)c(-c5ccc(F)cc5)oc4cc3N(C)S(C)(=O)=O)nc2-c2cc3c(F)cccc3n21` (centres unmarked) [Compound 119], for which the IC50 in test [1] (Hepatitis C virus, 96 h) is 17 nM; in test [2] (Hepatitis C virus, 96 h), 5.1 nM.

As for `CNC(=O)c1c(-c2ccc(F)cc2)oc2cc(N(C)S(C)(=O)=O)c(-c3ncc4c(n3)-c3cc5ccccc5n3CO4)cc12` [Compound 4], the IC50 in test [1] (Hepatitis C virus, 96 h) is 0.7 nM; in test [2] (Hepatitis C virus, 96 h), 1.3 nM.

Regarding `CNC(=O)c1c(-c2ccc(F)cc2)oc2cc(N(C)S(C)(=O)=O)c(-c3ccc4c(n3)-c3[nH]c5cccc(F)c5c3C(c3nccs3)O4)cc12` (centres unmarked) [Compound 67], the IC50 turned out to be 9.2 nM in test [1] (Hepatitis C virus, 96 h) and 10 nM in test [2] (Hepatitis C virus, 96 h).

For `CNC(=O)c1c(-c2ccc(F)cc2)oc2cc(N(C)S(C)(=O)=O)c(-c3ccc4c(n3)-c3c(Cl)c5c(Cl)cccc5n3CO4)cc12` [Compound 57], the IC50 in test [1] (Hepatitis C virus, 96 h) amounted to 11 nM; in test [2] (Hepatitis C virus, 96 h), 13 nM.

In the case of `CCOC(=O)C(C)NCC1Oc2ccc(-c3cc4c(C(=O)NC)c(-c5ccc(F)cc5)oc4cc3N(C)S(C)(=O)=O)nc2-c2cc3c(F)cccc3n21` (centres unmarked) [Compound 118], the IC50 is 19 nM in test [1] (Hepatitis C virus, 96 h) and 4 nM in test [2] (Hepatitis C virus, 96 h).

With `CNC(=O)c1c(-c2ccc(F)cc2)oc2cc(N(C)S(C)(=O)=O)c(-c3ccc4c(n3)-c3cc5ccccc5n3CO4)cc12` [Compound 1, 2-(4-fluorophenyl)-N-methyl-6-(N-methylmethylsulfonamido)-5-(6H-pyrido[2′,3′:5,6][1,3]oxazino[3,4-a]indol-2-yl)benzofuran-3-carboxamide], the IC50 is 2.4 nM in test [1] (Hepatitis C virus, 96 h) and 4.8 nM in test [2] (Hepatitis C virus, 96 h).

As to `CN(c1cc2oc(-c3ccc(F)cc3)c(C(=O)NCCO)c2cc1-c1ccc2c(n1)-c1cc3c(F)cccc3n1CO2)S(C)(=O)=O` [Compound 151, 5-(11-fluoro-6H-pyrido[2′,3′:5,6][1,3]oxazino[3,4-a]indol-2-yl)-2-(4-fluorophenyl)-N-(2-hydroxyethyl)-6-(N-methylmethylsulfonamido)benzofuran-3-carboxamide], the IC50 in test [1] (Hepatitis C virus, 96 h) amounted to 4.3 nM; in test [2] (Hepatitis C virus, 96 h), 5.9 nM.

For `CNC(=O)c1c(-c2ccc(F)cc2)oc2cc(N(C)S(C)(=O)=O)c(-c3ccc4c(n3)-c3cc5cc(C#N)ccc5n3CO4)cc12` [Compound 13], the IC50 in test [1] (Hepatitis C virus, 96 h) came to 2 nM; in test [2] (Hepatitis C virus, 96 h), 2.2 nM.

Turning to `CNC(=O)c1c(-c2ccc(F)cc2)oc2cc(N(C)S(C)(=O)=O)c(-c3ccc4c(n3)-c3cc5c(F)cccc5n3C(COC(=O)[C@@H]3CCCN3C(=O)OC)O4)cc12` (some centres unmarked) [Compound 104], the IC50 in test [1] (Hepatitis C virus, 96 h) was found to be 2.4 nM; in test [2] (Hepatitis C virus, 96 h), 4.8 nM.

On to `CC(C)NC(=O)c1c(-c2ccc(F)cc2)oc2cc(N(C)S(C)(=O)=O)c(-c3ccc4c(n3)-c3cc5c(F)cccc5n3CO4)cc12` [Compound 158], for which the IC50 in test [1] (Hepatitis C virus, 96 h) is 42 nM; in test [2] (Hepatitis C virus, 96 h), 24 nM.

Consider `CNC(=O)c1c(-c2ccc(F)cc2)oc2cc(N(C)S(C)(=O)=O)c(-c3ccc4c(c3)-c3nc5ccccc5n3CO4)cc12` [Compound 133, 5-(6H-benzo[e]benzo[4,5]imidazo[1,2-c][1,3]oxazin-2-yl)-2-(4-fluorophenyl)-N-methyl-6-(N-methylmethylsulfonamido)benzofuran-3-carboxamide], for which the half-inhibitory concentration (IC50) in test [1] (Hepatitis C virus, 96 h) is 2.6 nM; in test [2] (Hepatitis C virus, 96 h), 3.2 nM.

For `CNC(=O)c1c(-c2ccc(F)cc2)oc2cc(N(C)S(C)(=O)=O)c(-c3ncc4c(n3)-c3cc5ccccc5n3CCO4)cc12` [Compound 7], the IC50 in test [1] (Hepatitis C virus, 96 h) came out at 2.4 nM; in test [2] (Hepatitis C virus, 96 h), 1.6 nM.

Take `CNC(=O)c1c(-c2ccc(F)cc2)oc2cc(N(C)S(C)(=O)=O)c(-c3ccc4c(n3)-c3cc5c(CO)cccc5n3CO4)cc12` [Compound 72, 2-(4-fluorophenyl)-5-(11-(hydroxymethyl)-6H-pyrido[2′,3′:5,6][1,3]oxazino[3,4-a]indol-2-yl)-N-methyl-6-(N-methylmethylsulfonamido)benzofuran-3-carboxamide]: the IC50 in test [1] (Hepatitis C virus, 96 h) worked out at 52 nM; in test [2] (Hepatitis C virus, 96 h) it was 9 nM.

In the case of `CNC(=O)c1c(-c2ccc(F)cc2)oc2cc(N(C)S(C)(=O)=O)c(-c3ncc4c(n3)-c3cc5cc(F)ccc5n3CO4)cc12` [Compound 6], the IC50 in test [1] (Hepatitis C virus, 96 h) came to 1.5 nM; in test [2] (Hepatitis C virus, 96 h) it was 2.3 nM.

For the compound `CNC(=O)c1c(-c2ccc(F)cc2)oc2cc(N(C)S(C)(=O)=O)c(-c3ccc4c(n3)-c3cc5c(F)cccc5n3C(CNS(C)(=O)=O)O4)cc12` (centres unmarked) [Compound 128, 5-(11-fluoro-6-(methylsulfonamidomethyl)-6H-pyrido[2′,3′:5,6][1,3]oxazino[3,4-a]indol-2-yl)-2-(4-fluorophenyl)-N-methyl-6-(N-methylmethylsulfonamido)benzofuran-3-carboxamide], the IC50 is 2.6 nM in test [1] (Hepatitis C virus, 96 h) and 0.9 nM in test [2] (Hepatitis C virus, 96 h).

In the case of `CNC(=O)c1c(-c2ccc(F)cc2)oc2cc(N(CC(F)F)S(C)(=O)=O)c(-c3ccc4c(n3)-c3cc5c(C#N)cccc5n3CO4)cc12` [Compound 188], the IC50 in test [1] (Hepatitis C virus, 96 h) is 3.8 nM; in test [2] (Hepatitis C virus, 96 h), 3.7 nM.

By IC50 is commonly meant the concentration needed to halve the response being measured.
